The results in this text go back to patent US20160090556A1, “PRODUCTS COMPRISING MALODOR REDUCTION MATERIALS” (The Procter & Gamble Company, priority 2014, published 2016).

The nature of one data set: Liquid dish neat product liquid-air partition coefficient.
Details: not given
It counts as physicochemical.
As to `CCCC(=O)OCCc1ccccc1` [Material 831], the “Log of liquid dish neat product liquid-air partition coefficient (Comment Code K/L)” value (“Log … (Comment Code K/L)” below) is “K (Log of liquid dish neat product liquid-air partition coefficient greater than or equal to −7)”.

On to `CC1C(C)(C)C2=C(C(=O)CCC2)C1(C)C` (stereo not drawn) [Material 572], for which the “Log … (Comment Code K/L)” value was “K (Log of liquid dish neat product liquid-air partition coefficient greater than or equal to −7)”. Consider `CC1=CCC(CCC(C)CO)C1(C)C` (stereo not drawn) [Material 600], for which the “Log … (Comment Code K/L)” value is “K (Log of liquid dish neat product liquid-air partition coefficient greater than or equal to −7)”.

Take `CC(CO)CCCc1ccccc1` (stereo not drawn) [Material 1012]: the “Log … (Comment Code K/L)” value is recorded as “K (Log of liquid dish neat product liquid-air partition coefficient greater than or equal to −7)”. On the same count and under the same terms, next, `CC(C)=C1CCC2=CC(=O)CC(C)C2(C)C1` (stereo not drawn) [Material 684]: “K (Log of liquid dish neat product liquid-air partition coefficient greater than or equal to −7)”; `COCCOC(C)OCc1ccccc1` (stereo not drawn) [Material 768]: “K (Log of liquid dish neat product liquid-air partition coefficient greater than or equal to −7)”; `CCCCCCCCCCO` [Material 868]: “K (Log of liquid dish neat product liquid-air partition coefficient greater than or equal to −7)”.

For `CC1C(C)(C)C2CCC3CC(C)(C)OC3C2C1(C)C` (stereo not drawn) [Material 679], the “Log … (Comment Code K/L)” value was “K (Log of liquid dish neat product liquid-air partition coefficient greater than or equal to −7)”.

For `C=C(C)C1CCC2(C)CCC=C(C)C2C1` (stereo not drawn) [Material 774], the “Log … (Comment Code K/L)” value was “K (Log of liquid dish neat product liquid-air partition coefficient greater than or equal to −7)”. Same read-out and setting: the same measure for `CC1=CC[C@@H]2[C@@]3(C)CCCC(C)(C)[C@@H]3CC[C@@]2(C)O1` [Material 1029]: “K (Log of liquid dish neat product liquid-air partition coefficient greater than or equal to −7)”; for `CC(=O)C=CC1C(C)=CCC(C)C1(C)C` (stereo not drawn) [Material 704]: “K (Log of liquid dish neat product liquid-air partition coefficient greater than or equal to −7)”; for `C=C1CCCC(C)(C)C1C=C(C)C(C)=O` (stereo not drawn) [Material 913]: “K (Log of liquid dish neat product liquid-air partition coefficient greater than or equal to −7)”.

The same data set, now with this note: class code letter within Comment Code.
As for `C=CC1(C)CCC(C(C)(C)O)O1` (stereo not drawn) [Material 156], the “Log … (Comment Code K/L)” value is “K (Log of liquid dish neat product liquid-air partition coefficient greater than or equal to −7)”.

Regarding `CCCCCCC1C(=O)CCC1C(=O)OC` (stereo not drawn) [Material 450], the “Log … (Comment Code K/L)” value is reported as “K (Log of liquid dish neat product liquid-air partition coefficient greater than or equal to −7)”. Still for that read-out and setting: the same measure for `Cc1cccc(Oc2ccccc2)c1` [Material 114]: “K (Log of liquid dish neat product liquid-air partition coefficient greater than or equal to −7)”. On the same count and under the same terms, the same measure for `C=CC(C)=CCCC(C)(C)O` [Material 43]: “K (Log of liquid dish neat product liquid-air partition coefficient greater than or equal to −7)”; for `CC(O)CCc1ccccc1` (stereo not drawn) [Material 98]: “K (Log of liquid dish neat product liquid-air partition coefficient greater than or equal to −7)”; for `CCCCCCCCCCCCCC(=O)OC(C)C` [Material 196]: “K (Log of liquid dish neat product liquid-air partition coefficient greater than or equal to −7)”. For `CCOC(C=C(C)CCC=C(C)C)OCC` [Material 521], the “Log … (Comment Code K/L)” value was “K (Log of liquid dish neat product liquid-air partition coefficient greater than or equal to −7)”. On to `CCCCCCC#CC(OC)OC` [Material 3], for which the “Log … (Comment Code K/L)” value is on record as “K (Log of liquid dish neat product liquid-air partition coefficient greater than or equal to −7)”. In the case of `CCOC(=O)C12CCCC1C1CCC2C1` (stereo not drawn) [Material 344], the “Log … (Comment Code K/L)” value is on record as “K (Log of liquid dish neat product liquid-air partition coefficient greater than or equal to −7)”. Still for that read-out and setting: next, `C=CC(=C)CCCC(C)(C)OC(C)=O` [Material 35]: “K (Log of liquid dish neat product liquid-air partition coefficient greater than or equal to −7)”; `CC(=O)OC1(C)CCC(=C(C)C)CC1` (stereo not drawn) [Material 317]: “K (Log of liquid dish neat product liquid-air partition coefficient greater than or equal to −7)”; `C=CCc1ccc(O)c(OC)c1` [Material 375]: “K (Log of liquid dish neat product liquid-air partition coefficient greater than or equal to −7)”. Consider `c1ccc2occc2c1` [Material 493], for which the “Log … (Comment Code K/L)” value is “K (Log of liquid dish neat product liquid-air partition coefficient greater than or equal to −7)”.

Staying with this data set, now noted: code letters K, L.
Consider `CC(C)(O)CCC1CCCCC1` [Material 496], for which the “Comment Code: Log of liquid dish neat product liquid-air partition coefficient” value (from here on “Comment Code: Log”) was “K (Log of liquid dish neat product liquid-air partition coefficient greater than or equal to −7)”.

For `CC1(C)C2CCC3(C2)C1C1(CCC3(C)C)OCCO1` (stereo not drawn) [Material 1145], the “Comment Code: Log” value is reported as “K (Log of liquid dish neat product liquid-air partition coefficient greater than or equal to −7)”. On to `CC(O)CCC1C(C)CCCC1(C)C` (stereo not drawn) [Material 1052], for which the “Comment Code: Log” value was “K (Log of liquid dish neat product liquid-air partition coefficient greater than or equal to −7)”. `CC(C)=C1CCC2=CC(=O)CC(C)C2(C)C1` (stereo not drawn) [Material 684]: the “Comment Code: Log” value is “K (Log of liquid dish neat product liquid-air partition coefficient greater than or equal to −7)”.

Take `CC=CC(=O)C1C(C)=CCCC1(C)C` (stereo not drawn) [Material 1074]: the “Comment Code: Log” value was “K (Log of liquid dish neat product liquid-air partition coefficient greater than or equal to −7)”. Turning to `CCOC(=O)C=Cc1ccccc1` [Material 400], the “Comment Code: Log” value is “K (Log of liquid dish neat product liquid-air partition coefficient greater than or equal to −7)”. The same measure, in the same setting: next, `CC1C(C)(C)C2CCC3CC(C)(C)OC3C2C1(C)C` (stereo not drawn) [Material 679]: “K (Log of liquid dish neat product liquid-air partition coefficient greater than or equal to −7)”; `C=CC(C)(C#N)Cc1ccccc1` (stereo not drawn) [Material 504]: “K (Log of liquid dish neat product liquid-air partition coefficient greater than or equal to −7)”. Regarding `C=CC(C)(CCC=C(C)C)OC(=O)CCC` (stereo not drawn) [Material 151], the “Comment Code: Log” value was “K (Log of liquid dish neat product liquid-air partition coefficient greater than or equal to −7)”. Same read-out and setting: next, `CC1=CC[C@@H]2[C@@]3(C)CCCC(C)(C)[C@@H]3CC[C@@]2(C)O1` [Material 1029]: “K (Log of liquid dish neat product liquid-air partition coefficient greater than or equal to −7)”.

Still in this data set, the particulars now being: codes K/L of the Comment Code, Table 1.
Take `CC1(C)C2CCC3(C2)C1C1(CCC3(C)C)OCCO1` (stereo not drawn) [Material 1145]: the “Comment Code: Log” value is given as “K (Log of liquid dish neat product liquid-air partition coefficient greater than or equal to −7)”.
